Tests used:
[1] = test system: 4T1, 67NR, MCF10AT1k, MCF10CA1h and MCF10CA1a; assay: Cell viability at 100 μM GC7, phase-contrast imaging across cell lines; format: cell-based, mouse, human; settings: 100 μM GC7, 48 hours
Description: There are currently two drugs available that can target the activation of eIF5A. Its role of hypusination/activation is spermidine dependent and is carried out in two subsequent steps by the enzymes deoxyhypusine synthase (DHPS) catalyzing the first step and deoxyhypusine hydroxylase (DOHH) catalyzing the second step. The efficacy and potency of the two drugs in the selected cell lines; GC7 (N1-Guanyl-1,7-diaminoheptane)—a selective inhibitor of DHPS, and CPX (Ciclopirox olomine)—which chelates iron that is important for the activity of DOHH (FIG. 2A) are shown. The concentration that determines a 50% decrease in cell viability is noted by the IC50 values on each graph for each drug. These cells were imaged when treated with the second highest concentration of GC7 at 100 μM to show a decrease in cell viability after 48 hours of treatment (FIG. 2B). […] From this point forward, all experiments performed used only GC7 as the selected drug to target hypusinated eIF5A.
The inventors sought to determine if the decrease in cell viability is due to the inhibition of post translational modification of eIF5A. To test this, all cell lines were treated with GC7 at 100 μM for 48 hours—which were the time point and concentration at which a decrease in cell viability was seen (FIG. 2B). […]

hypusinated eIF5A = assay: Western blot hypusine versus total eIF5A; format: cell-based, mouse, human
Description: The inventors sought to determine if the decrease in cell viability is due to the inhibition of post translational modification of eIF5A. To test this, all cell lines were treated with GC7 at 100 μM for 48 hours—which were the time point and concentration at which a decrease in cell viability was seen (FIG. 2B). The inventors then collected, performed a western blot and immunoblotted for hypusine, total eIF5A and β-actin as a loading control (FIG. 3A). […] To test if this effect is dose-dependent, 4T1, 67NR and MCF10CA1a cells were treated with various concentrations of GC7 ranging from 0.1 μM to 100 μM. Protein lysates were then collected after 48 hours of treatment and performed a western blot. […] To validate this in breast cancer cells, the inventors immunoblotted for PEAK1 as well as E-cadherin, hypusine, total eIF5A and β-actin as a loading control (FIG. 3B). […] The inventors next looked at cell viability at lower concentrations of GC7, such as 1 μM and 10 μM, where a decrease in hypusinated eIF5A is still achieved but the decrease in cell viability is not as great in lower concentrations that do still target hypusinated eIF5A (FIG. 3C).
Cell lines were plated in a 6 well plate at 1e5 cells/mL and left to attach overnight. […] Protein concentrations were determined using Bradford Assay. […] Band intensity graphs were quantified using Fiji software after image thresholding.

MCF10CA1h cells = assay: Chicken CAM xenograft, tumor weight and metastasis (human Alu qPCR); format: in vivo
Description: FIGS. 11A and 11B. […] Human triple negative MCF10CA1h breast cancer cells were pre-treated with TGFβ and fibronectin for 7 days to induce PEAK1-dependent epithelial-mesenchymal transition and tumorigenic potential. 1e6 cells were xenografted onto the chorioallantoic membrane of 10 day old chicken embryos in 20 uL of growth factor reduced Matrigel, and subsequently treated with a vehicle control, GC7, TubastatinA (TubA) or both GC7/TubA at either 1 uM (panel A) or 10 uM (panel B). Tumors were allowed to develop over the following 7 days and then harvested and weighed along with the indicated liver, lung and brain tissues. gDNA was isolated from these additional tissues to quantify human Alu repeat sequence composition normalized to host chicken GAPDH as a measure of relative cell metastasis to the indicated tissues.
Based on the partially impaired expression of Zeb1 in vitro, we wanted to assess whether this effect would result in altered metastatic dissemination using the in vivo chicken CAM system.

[2] = test system: eIF5A localization in MDA-MB-468 cells; assay: Immunofluorescence, subcellular localization of total eIF5A; format: cell-based, human; settings: 1 and 10 μM GC7, 48 hours
Description: (§1) Thus, we interrogated the subcellular localization of eIF5A protein using immunofluorescent staining under control as well as 1 and 10 μM GC7 treatment conditions in triple negative breast cancer lines (FIGS. 12A and 12B).
(§2) Cells were plated at 1e4 cells/mL at 4 mL in a 6-well plate containing a sterile glass coverslip and allowed to attach overnight. Cells were then treated with appropriate inhibitors at indicated concentrations and time-points. Cells were first fixed using 4% paraformaldehyde for 20 minutes. Cells were then subjected to Triton-X to permeabilize the cells before treatment with specific antibodies in 2% BSA in PBS. After primary antibody incubation for 90 minutes, cells were washed with PBS three times before incubating with secondary antibodies in 2% BSA in PBS for 1 hour. Cells were again washed with PBS three times before set overnight staining with DAPI. Cells were then imaged using a Leica DMI6000 inverted microscope at 100× magnification.

[3] = test system: eIF5A localization in MCF10CA1h cells; assay: as above; format: cell-based, human; settings: 1 and 10 μM GC7, 48 hours
Description: as §1, §2

[4] = 1 μM GC7, fibronectin and TGFβ pre-treated cells, 7 days

N=C(N)NCCCCCCCN.O=S(=O)(O)O [GC7, N1-Guanyl-1,7-diaminoheptane]
decrease in cell viability [1]: largest decrease in cell viability | decrease in hypusinated eIF5A protein activity (hypusinated eIF5A; 100 μM GC7, 48 hours, 4T1, 67NR, MCF10AT1k, MCF10CA1h and MCF10CA1a): largest decrease in hypusinated eIF5A protein activity | hypusinated eIF5A levels (band intensity ratio to total eIF5A) (hypusinated eIF5A; GC7 0.1 μM to 100 μM, 48 hours, 4T1, 67NR and MCF10CA1a): consistently decreased | metastatic dissemination to lung (MCF10CA1h cells; [4]): significantly reduced | primary tumor mass (MCF10CA1h cells; [4]): unaffected | metastasis (MCF10CA1h cells; low doses of GC7 (1 uM, panel A)): reduces metastasis | nuclear depletion of eIF5A [2]: this change was significant only in the case of MDA-MB-468 cells | nuclear depletion of eIF5A [3]: Nuclear depletion of eIF5A was observed
